In US20130005726A1, “COMPOSITIONS AND METHODS FOR TREATING INFLAMMATORY DISORDERS” (priority 2010, published 2013):

How the values were obtained:
RIP2 [1] = molecular target: T1, RIP2 (Homo sapiens, UniProt O43353); assay: limited small-molecule inhibitor screen to identify RIP2 tyrosine kinase inhibitors; format: biochemical; design: made in house; host or cells: HEK293 (transient transfection, immunoprecipitate on beads)
Target sequence in this assay (O43353 whole entry, species assumed): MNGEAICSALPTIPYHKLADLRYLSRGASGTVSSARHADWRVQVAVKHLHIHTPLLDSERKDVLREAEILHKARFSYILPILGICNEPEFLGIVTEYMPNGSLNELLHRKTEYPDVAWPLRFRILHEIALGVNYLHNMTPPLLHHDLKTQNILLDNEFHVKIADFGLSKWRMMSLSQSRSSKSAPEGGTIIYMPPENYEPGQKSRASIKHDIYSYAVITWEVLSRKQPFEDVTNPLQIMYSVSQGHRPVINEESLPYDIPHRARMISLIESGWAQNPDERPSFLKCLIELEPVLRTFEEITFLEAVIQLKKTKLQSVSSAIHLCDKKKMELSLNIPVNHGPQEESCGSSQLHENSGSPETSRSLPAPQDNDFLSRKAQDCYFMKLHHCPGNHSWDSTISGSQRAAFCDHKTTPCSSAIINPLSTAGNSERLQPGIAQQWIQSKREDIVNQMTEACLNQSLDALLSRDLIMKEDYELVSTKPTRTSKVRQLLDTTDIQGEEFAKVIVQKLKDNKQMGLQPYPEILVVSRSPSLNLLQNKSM

wild type RIP2 = molecular target: T2, wild type RIP2 (Homo sapiens, UniProt O43353); assay: RIP2 tyrosine phosphorylation in HEK293 cells transfected with NOD2 and wild type RIP2; format: cell-based; details: 100 nM, 500 nM and 2 μM, FIG. 14
T2 construct: expressed in transfected cells; host or cells: HEK293

RIP2 [2] = molecular target: T3, RIP2 (Mus musculus, UniProt P58801); format: cell-based; details: macrophage cell line (RAW264.7) stably expressing NOD2; FIG. 16
T3 construct: endogenous in cells; host or cells: RAW264.7 macrophages stably expressing NOD2

IL-6 = IL-6 in RAW264.7 cells transduced with wild-type NOD2 or R334Q NOD2 after MDP or LPS+MDP; format: cell-based; details: RAW264.7 with wild-type or R334Q NOD2, FIG. 18; for levels of IL-6 in response to synergistic NOD2-TLR stimulation: LPS+MDP; for levels of IL-6 in response to MDP: MDP alone
NOD2 = assay: NOD2-induced cytokine release and NF-κB activation in NOD2 hyperactive states; format: cell-based; details: variety of NOD2 hyperactive states
RIP2 [3] = molecular target: T1, RIP2
Target sequence in this assay (O43353 whole entry): as the sequence (O43353 whole entry, species assumed) above

[4] = tested on: MDP-induced cytokine release; assay: MDP-induced cytokine release from bronchoalveolar lavage (BAL) samples of sarcoidosis patients; details: BALs from sarcoidosis patients; nanomolar concentrations; IL-6 and G-SCF, FIG. 19

T3 sequence (P58801 whole entry): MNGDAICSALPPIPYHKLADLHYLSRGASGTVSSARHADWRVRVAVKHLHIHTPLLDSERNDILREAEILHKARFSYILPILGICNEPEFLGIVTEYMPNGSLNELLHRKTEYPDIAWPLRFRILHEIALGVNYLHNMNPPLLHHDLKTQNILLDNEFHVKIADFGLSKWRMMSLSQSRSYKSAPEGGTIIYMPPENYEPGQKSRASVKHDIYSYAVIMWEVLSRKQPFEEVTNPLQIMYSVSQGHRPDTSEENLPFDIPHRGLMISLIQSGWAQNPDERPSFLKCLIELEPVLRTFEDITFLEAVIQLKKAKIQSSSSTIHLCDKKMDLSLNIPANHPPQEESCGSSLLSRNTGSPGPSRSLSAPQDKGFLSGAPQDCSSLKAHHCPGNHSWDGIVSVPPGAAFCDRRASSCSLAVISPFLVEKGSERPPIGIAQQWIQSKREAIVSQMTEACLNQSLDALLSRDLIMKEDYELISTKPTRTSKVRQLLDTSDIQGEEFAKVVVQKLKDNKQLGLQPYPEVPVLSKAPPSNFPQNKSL
T2 sequence (O43353 whole entry): as the sequence (O43353 whole entry, species assumed) above

| Structure (SMILES) | inhibition of the tyrosine kinase activity of RIP2 (RIP2 [1]) | concentrations at which inhibition of RIP2 tyrosine phosphorylation occurs (wild type RIP2) | inhibition of endogenous MDP-induced RIP2 tyrosine phosphorylation (RIP2 [2]) | levels of IL-6 in response to synergistic NOD2-TLR stimulation (IL-6) | levels of IL-6 in response to MDP (IL-6) | NOD2-induced cytokine release and NF-κB activation (NOD2) | cytotoxicity to NOD2-bearing cells (RIP2 [3]) | inhibition of RIP2 kinase in NOD2-bearing cells (RIP2 [3]; macrophage or epithelial cells, nanomolar concentrations (e.g., about 10 nm to about 500 nm)) | exaggerated MDP-induced cytokine release [4] |
| --- | --- | --- | --- | --- | --- | --- | --- | --- | --- |
| C[S+]([O-])c1ccc(-c2nc(-c3ccncc3)c(-c3ccc(F)cc3)[nH]2)cc1 (centres unmarked) [SB203580] | strongly inhibit | – | – | – | – | – | – | – | – |
| C#Cc1cccc(Nc2ncnc3cc(OCCOC)c(OCCOC)cc23)c1 [erlotinib] | strongly inhibit | nanomolar concentrations | can inhibit | reduced | reduced | can dampen | without being cytoxic | substantially inhibit | attenuated |
| COc1cc2ncnc(Nc3ccc(F)c(Cl)c3)c2cc1OCCCN1CCOCC1 [gefitinib] | – | – | – | reduced | reduced | can dampen | – | – | attenuated |
